Experimental data as given in PMC8598068, “Flagellin lysine methyltransferase FliB catalyzes a [4Fe-4S] mediated methyl transfer reaction” (PLoS Pathogens, 2021).

Legend:
ftFliB (FleBt-FliB) [1] = target: T1, ftFliB (FleBt-FliB) (Salmonella enterica, UniProt Q56106); test: biochemical
ftFliB (FleBt-FliB) [2] = target: T1, ftFliB (FleBt-FliB); test: UV-vis, EPR, […] Mössbauer, iron and sulfur content; format: binding; design: N-terminal His6 and Yersinia enterocolitica FleB residues 54-332 (FleBt) solubility tag kept, fused to FliB; E. coli BL21(DE3); ~76 kDa; about 14-mer; conditions: anaerobically reconstituted protein; CX4CX3CC motif
[3] = target: the molecule itself; test: SEC-MALS; TSK-GEL BioAssist G4SWXL column, buffer A, 0.5 mL/min; MALS with RI and UV 280 nm detectors

C[S+](CC[C@H](N)C(=O)O)C[C@H]1O[C@@H](n2cnc3c(N)ncnc32)[C@H](O)[C@@H]1O (stereo partly drawn) [SAM, S-adenosylmethionine]
Kd (ftFliB (FleBt-FliB) [1]): 10.5 ± 3.41 µM

[S]12[Fe]3[S]4[Fe]1[S]1[Fe]2[S]3[Fe]41 [[4Fe-4S] cluster]
UV-vis, EPR, 57Fe Mössbauer, iron and sulfur content (ftFliB (FleBt-FliB) [2]): indicating the presence of one [4Fe-4S] cluster in FliB

B1: FleBt-FliB fusion protein (flagellin lysine methyltransferase FliB fused to the C-terminus of truncated FleB) (enzyme)
chain: MKEITVTEPAFVTRFSCSGSACRDHCCKGWKITLDKTTVKKYLASKDTTIRTIAQDHIILLKKNNSHWGEIKLPSALGNCPYLDEDRLCRVQKTLGAKALSHTCSSFPRAHHTYKNEVRNSLSLACPEVTSRILNDPDAMALSEKTIIQQTFNTAPLFPAQQKLLNLFCLSLINHANSSTEAALYALIKFVMYAQKFAKIDDAALGELEQVYAALLEQLQTGVLAQELMNIAPDSKVKTSLVLQMQDYFRSLPLNRGSVILDHYIQCLLRVLTAEEGVSMEQKVSDIESSLARCLQANEQQKNWAFRNLILYKIWENNFPNQPNVDPLRALYIIVAEYAFIKLLTAASVHERGRIEWDDVTNIVYSFHSRSQHNSEVAKNFHRHIETVRTGDDLSMIHLLT
notes: also called ftFliB; source: E. coli BL21 (DE3), purified (HisTrap HP, SEC); copies: 14
stoichiometry N [3]: ~14 subunits per oligomer
